This is an account of results in patent US10399940B2, “Substituted pyrrolidines and methods of use” (AbbVie S.à.r.l., priority 2016, dated 2019).

Read-outs that look alike come from different tables or passages of the source.

The target in this experiment is T1, F508delCFTR (Homo sapiens, UniProt P13569, DEL508-508).
T1 construct: expressed in transfected cells; host or cells: CFBE41o- (human lung derived epithelial cell line), doxycycline-inducible expression
As to the kind of experiment: Cell Surface Expression-Horse Radish Peroxidase (CSE-HRP) assay. In kind it is cell-based. The settings on record: CFBE41o-F508delCFTR-HRP cells; for Maximum % activity (with co-corrector): with co-corrector (2 μM); for Maximum % activity (with co-corrector) / Maximum % activity (without co-corrector): normalized to on-plate positive control, highest concentration 20 μM. The method, boiled down: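 CFBE41o- cells expressed F508delCFTR with HRP in the fourth exofacial loop, induced by 0.5 μg/mL doxycycline for 72 h at 37 °C. Compounds alone or with 2 μM co-corrector ran 18–24 h at 33 °C, 8-point 3-fold from 20 μM. Washed-cell luminol luminescence was normalized to DMSO and positive control, fitted sigmoidally for EC50 (three plates).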

[1] abbreviates: test compound without co-corrector, 18-24 hours at 33° C., read-out: EC50 (without co-corrector).
Setting [2] is: with co-corrector (2 μM of 3-[(2R,4R)-4-({[1-(2,2-difluoro-1,3-benzodioxol-5-yl)cyclopropyl]carbonyl}amino)-7-methoxy-3,4-dihydro-2H-chromen-2-yl]benzoic acid), read-out: EC50 (with co-corrector).

Broadly, the EC50 is the concentration giving half of the maximal effect.

T1 sequence (P13569 with tags, fused parts or gaps DEL508-508): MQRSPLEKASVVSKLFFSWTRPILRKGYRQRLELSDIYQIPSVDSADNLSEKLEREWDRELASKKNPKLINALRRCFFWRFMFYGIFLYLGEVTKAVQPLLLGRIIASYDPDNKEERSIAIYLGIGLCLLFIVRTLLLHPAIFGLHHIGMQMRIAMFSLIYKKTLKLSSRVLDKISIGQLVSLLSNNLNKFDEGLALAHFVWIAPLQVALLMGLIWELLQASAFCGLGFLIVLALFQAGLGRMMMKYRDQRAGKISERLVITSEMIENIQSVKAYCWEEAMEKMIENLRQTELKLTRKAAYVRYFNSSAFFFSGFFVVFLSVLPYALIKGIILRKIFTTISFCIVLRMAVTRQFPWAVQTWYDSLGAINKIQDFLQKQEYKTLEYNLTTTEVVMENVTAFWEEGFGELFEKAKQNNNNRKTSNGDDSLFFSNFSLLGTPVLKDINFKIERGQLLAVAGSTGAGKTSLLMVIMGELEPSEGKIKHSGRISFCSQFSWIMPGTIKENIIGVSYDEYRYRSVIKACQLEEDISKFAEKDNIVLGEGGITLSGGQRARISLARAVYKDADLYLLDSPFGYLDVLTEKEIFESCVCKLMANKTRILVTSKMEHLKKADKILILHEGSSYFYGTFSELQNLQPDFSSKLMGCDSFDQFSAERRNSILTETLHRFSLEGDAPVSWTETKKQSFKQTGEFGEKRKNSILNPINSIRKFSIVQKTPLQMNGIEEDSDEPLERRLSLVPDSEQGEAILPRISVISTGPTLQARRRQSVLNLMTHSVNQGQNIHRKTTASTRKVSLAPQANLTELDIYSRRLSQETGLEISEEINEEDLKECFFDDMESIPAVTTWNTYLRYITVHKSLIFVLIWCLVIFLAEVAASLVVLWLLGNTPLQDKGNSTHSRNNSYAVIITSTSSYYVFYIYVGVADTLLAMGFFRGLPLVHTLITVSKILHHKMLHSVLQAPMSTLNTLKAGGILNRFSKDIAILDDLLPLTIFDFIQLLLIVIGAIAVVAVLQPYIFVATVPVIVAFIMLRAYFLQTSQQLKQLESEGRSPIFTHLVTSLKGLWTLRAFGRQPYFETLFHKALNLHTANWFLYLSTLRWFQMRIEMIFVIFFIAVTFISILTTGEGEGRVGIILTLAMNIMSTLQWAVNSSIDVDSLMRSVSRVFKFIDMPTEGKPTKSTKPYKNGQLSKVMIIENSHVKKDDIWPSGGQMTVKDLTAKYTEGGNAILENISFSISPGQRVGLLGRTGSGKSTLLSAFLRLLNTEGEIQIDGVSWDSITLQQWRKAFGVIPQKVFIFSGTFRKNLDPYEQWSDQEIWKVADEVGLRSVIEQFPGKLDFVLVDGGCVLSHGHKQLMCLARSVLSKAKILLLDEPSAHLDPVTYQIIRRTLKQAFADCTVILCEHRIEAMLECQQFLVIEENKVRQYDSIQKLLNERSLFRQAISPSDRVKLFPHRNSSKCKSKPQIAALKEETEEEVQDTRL

In the case of `COc1cc(C(F)(F)F)ccc1CO[C@H]1[C@H](C(C)(C)C)[C@@H](C(=O)O)N(C(=O)[C@@H]2CCCCO2)[C@H]1c1ccccc1C` [Example 175, (2S,3R,4S,5S)-3-tert-butyl-4-{[2-methoxy-4-(trifluoromethyl)phenyl]methoxy}-5-(2-methylphenyl)-1-[(2S)-oxane-2-carbonyl]pyrrolidine-2-carboxylic acid], the “Maximum % activity (with co-corrector)” value is given as “+++ (≥350)” and the “Maximum % activity (without co-corrector)” value is “+++ (≥200)”. For the same compound, under setting [1], the EC50 lay in the range of 1 to 10 µM. Moreover, the EC50 under setting [2] is less than 1 µM.
Consider `COc1ncc(C2CCC2)cc1CO[C@H]1[C@H](C(C)(C)C)[C@@H](C(=O)O)N(C(=O)[C@@H]2CCCCO2)[C@H]1c1ccccc1C(C)C` [Example 176, (2S,3R,4S,5S)-3-tert-butyl-4-[(5-cyclobutyl-2-methoxypyridin-3-yl)methoxy]-1-[(2S)-oxane-2-carbonyl]-5-[2-(propan-2-yl)phenyl]pyrrolidine-2-carboxylic acid], for which the “Maximum % activity (with co-corrector)” value is “+++ (≥350)” and the “Maximum % activity (without co-corrector)” value is “+++ (≥200)”. The EC50 under setting [1] lay within 1 to 10 µM. For the same compound, the 50% effective concentration (EC50) under setting [2] was less than 1 µM.
With `COc1ncc(C(F)(F)F)cc1CO[C@H]1[C@H](C(C)(C)C)[C@@H](C(=O)O)N(C(=O)[C@@H]2CCCCO2)[C@H]1c1ccccc1Br` [Example 178, (2S,3R,4S,5S)-5-(2-bromophenyl)-3-tert-butyl-4-{[2-methoxy-5-(trifluoromethyl)pyridin-3-yl]methoxy}-1-[(2S)-oxane-2-carbonyl]pyrrolidine-2-carboxylic acid], the “Maximum % activity (with co-corrector)” value is recorded as “+++ (≥350)”; the “Maximum % activity (without co-corrector)” value is “++ (≥100 and <200)”. In addition, the EC50 under setting [1] fell in the range of 1 to 10 µM. Further, under setting [2], the concentration for a half-maximal effect (EC50) lay within 1 to 10 µM.
On to `CCc1ccccc1[C@H]1[C@@H](OCc2cc(C(F)(F)F)cnc2OC)[C@H](C(C)(C)C)[C@@H](C(=O)O)N1C(=O)[C@@H]1CCCCO1` [Example 179, (2S,3R,4S,5S)-3-tert-butyl-5-(2-ethylphenyl)-4-{[2-methoxy-5-(trifluoromethyl)pyridin-3-yl]methoxy}-1-[(2S)-oxane-2-carbonyl]pyrrolidine-2-carboxylic acid], for which the “Maximum % activity (with co-corrector)” value is listed as “+++ (≥350)” and the “Maximum % activity (without co-corrector)” value is listed as “+++ (≥200)”. The EC50 under setting [1] was less than 1 µM. Also, the 50% effective concentration (EC50) under setting [2] is less than 1 µM.
Regarding `COc1ncc(C(F)(F)F)cc1CO[C@H]1[C@H](C(C)(C)C)[C@@H](C(=O)O)N(C(=O)[C@@H]2CCCCO2)[C@H]1c1ccccc1-c1ccccc1` [Example 180, (2S,3R,4S,5S)-5-([1,1′-biphenyl]-2-yl)-3-tert-butyl-4-{[2-methoxy-5-(trifluoromethyl)pyridin-3-yl]methoxy}-1-[(2S)-oxane-2-carbonyl]pyrrolidine-2-carboxylic acid], the “Maximum % activity (with co-corrector)” value was “+++ (≥350)” and the “Maximum % activity (without co-corrector)” value is listed as “+++ (≥200)”. Also, the EC50 under setting [1] was less than 1 µM. For the same compound, the EC50 under setting [2] is less than 1 µM.
With `COc1ncc(C(F)(F)F)cc1CO[C@H]1[C@H](C(C)(C)C)[C@@H](C(=O)O)N(C(=O)[C@@H]2CCCCO2)[C@H]1c1ccccc1-c1ccc(=O)n(C)c1` [Example 181, (2S,3R,4S,5S)-3-tert-butyl-4-{[2-methoxy-5-(trifluoromethyl)pyridin-3-yl]methoxy}-5-[2-(1-methyl-6-oxo-1,6-dihydropyridin-3-yl)phenyl]-1-[(2S)-oxane-2-carbonyl]pyrrolidine-2-carboxylic acid], the “Maximum % activity (with co-corrector)” value is “++ (≥150 and <350)”; the “Maximum % activity (without co-corrector)” value is reported as “+ (<100)”. Further, the EC50 under setting [1] was greater than 10 µM. For the same compound, the EC50 under setting [2] is 1 to 10 µM.
`COc1ncc(C2CCC2)cc1CO[C@H]1[C@H](C(C)(C)C)[C@@H](C(=O)O)N(C(=O)C2CCCCC2)[C@H]1c1ccccc1C1CC1` [Example 182, (2S,3R,4S,5S)-3-tert-butyl-4-[(5-cyclobutyl-2-methoxypyridin-3-yl)methoxy]-1-(cyclohexanecarbonyl)-5-(2-cyclopropylphenyl)pyrrolidine-2-carboxylic acid]: the “Maximum % activity (with co-corrector)” value is given as “+++ (≥350)” and the “Maximum % activity (without co-corrector)” value is reported as “+++ (≥200)”. Also, under setting [1], the 50% effective concentration (EC50) is 1 to 10 µM. The 50% effective concentration (EC50) under setting [2] is less than 1 µM.
Take `COc1ncc(C2CCC2)cc1CO[C@H]1[C@H](C(C)(C)C)[C@@H](C(=O)O)N(C(=O)C2CCCCC2)[C@H]1c1ccccc1Br` [Example 183, (2S,3R,4S,5S)-5-(2-bromophenyl)-3-tert-butyl-4-[(5-cyclobutyl-2-methoxypyridin-3-yl)methoxy]-1-(cyclohexanecarbonyl)pyrrolidine-2-carboxylic acid]: the “Maximum % activity (with co-corrector)” value is given as “+++ (≥350)”; the “Maximum % activity (without co-corrector)” value is “++ (≥100 and <200)”. In addition, under setting [1], the EC50 lay within 1 to 10 µM. Under setting [2], the EC50 fell in the range of 1 to 10 µM.
`CCc1ccccc1[C@H]1[C@@H](OCc2ccc(C(F)(F)F)cc2OC)[C@H](C(C)(C)C)[C@@H](C(=O)O)N1C(=O)[C@@H]1CCCCO1` [Example 184, (2S,3R,4S,5S)-3-tert-butyl-5-(2-ethylphenyl)-4-{[2-methoxy-4-(trifluoromethyl)phenyl]methoxy}-1-[(2S)-oxane-2-carbonyl]pyrrolidine-2-carboxylic acid]: the “Maximum % activity (with co-corrector)” value is recorded as “+++ (≥350)” and the “Maximum % activity (without co-corrector)” value is “+++ (≥200)”. The EC50 under setting [1] is less than 1 µM. Besides, the EC50 under setting [2] is less than 1 µM.
As for `CCc1ccccc1[C@H]1[C@@H](OCc2cc(C3CCC3)cnc2OC)[C@H](C(C)(C)C)[C@@H](C(=O)O)N1C(=O)[C@@H]1CCCCO1` [Example 185, (2S,3R,4S,5S)-3-tert-butyl-4-[(5-cyclobutyl-2-methoxypyridin-3-yl)methoxy]-5-(2-ethylphenyl)-1-[(2S)-oxane-2-carbonyl]pyrrolidine-2-carboxylic acid], the “Maximum % activity (with co-corrector)” value is on record as “+++ (≥350)” and the “Maximum % activity (without co-corrector)” value is recorded as “+++ (≥200)”. In addition, under setting [1], the EC50 was in the range of 1 to 10 µM. Also, the EC50 under setting [2] is less than 1 µM.
As for `COc1ccc(C(C)(C)C#N)cc1CO[C@H]1[C@H](C(C)(C)C)[C@@H](C(=O)O)N(C(=O)[C@@H]2CCCCO2)[C@H]1c1ccccc1C` [Example 187, (2S,3R,4S,5S)-3-tert-butyl-4-{[5-(2-cyanopropan-2-yl)-2-methoxyphenyl]methoxy}-5-(2-methylphenyl)-1-[(2S)-oxane-2-carbonyl]pyrrolidine-2-carboxylic acid], the “Maximum % activity (with co-corrector)” value was “+++ (≥350)” and the “Maximum % activity (without co-corrector)” value is given as “+++ (≥200)”. Further, the EC50 under setting [1] fell in the range of 1 to 10 µM. Also, the EC50 under setting [2] is less than 1 µM.
For `COc1ccc(C(C)(C)C)cc1CO[C@H]1[C@H](C(C)(C)C)[C@@H](C(=O)O)N(C(=O)[C@@H]2CCCCO2)[C@H]1c1ccccc1C` [Example 188, (2S,3R,4S,5S)-3-tert-butyl-4-[(5-tert-butyl-2-methoxyphenyl)methoxy]-5-(2-methylphenyl)-1-[(2S)-oxane-2-carbonyl]pyrrolidine-2-carboxylic acid], in that order: “+++ (≥350)”, “+++ (≥200)”, less than 1 µM and less than 1 µM.
For the compound `COc1nc2ccccc2cc1CO[C@H]1[C@H](C(C)(C)C)[C@@H](C(=O)O)N(C(=O)[C@@H]2CCCCO2)[C@H]1c1ccccc1C` [Example 189, (2S,3R,4S,5S)-3-tert-butyl-4-[(2-methoxyquinolin-3-yl)methoxy]-5-(2-methylphenyl)-1-[(2S)-oxane-2-carbonyl]pyrrolidine-2-carboxylic acid], the “Maximum % activity (with co-corrector)” value is given as “+++ (≥350)” and the “Maximum % activity (without co-corrector)” value is on record as “+++ (≥200)”. Moreover, the EC50 under setting [1] lay in the range of 1 to 10 µM. In addition, under setting [2], the EC50 fell in the range of 1 to 10 µM.
For `COc1ncc(C(F)(F)F)cc1CO[C@H]1[C@H](C(C)(C)C)[C@@H](C(=O)O)N(C(=O)[C@@H]2CCCCO2)[C@H]1c1ccccc1-c1ccc(F)cc1` [Example 190, (2S,3R,4S,5S)-3-tert-butyl-5-(4′-fluoro[1,1′-biphenyl]-2-yl)-4-{[2-methoxy-5-(trifluoromethyl)pyridin-3-yl]methoxy}-1-[(2S)-oxane-2-carbonyl]pyrrolidine-2-carboxylic acid], the “Maximum % activity (with co-corrector)” value is “+++ (≥350)” and the “Maximum % activity (without co-corrector)” value is “+++ (≥200)”. The EC50 under setting [1] lay within 1 to 10 µM. Under setting [2], the EC50 fell in the range of 1 to 10 µM.
Regarding `COc1ncc(C(F)(F)F)cc1CO[C@H]1[C@H](C(C)(C)C)[C@@H](C(=O)O)N(C(=O)[C@@H]2CCCCO2)[C@H]1c1ccccc1-c1cccc(Cl)c1` [Example 191, (2S,3R,4S,5S)-3-tert-butyl-5-(3′-chloro[1,1′-biphenyl]-2-yl)-4-{[2-methoxy-5-(trifluoromethyl)pyridin-3-yl]methoxy}-1-[(2S)-oxane-2-carbonyl]pyrrolidine-2-carboxylic acid], the “Maximum % activity (with co-corrector)” value is “+++ (≥350)” and the “Maximum % activity (without co-corrector)” value is recorded as “+++ (≥200)”. Moreover, the EC50 under setting [1] fell in the range of 1 to 10 µM. The EC50 under setting [2] was 1 to 10 µM.
